Laboratory results published in article PMC7920811 (Neoplasia (New York, N.Y.), 2021).

Molecular target: STAT3 (Homo sapiens, UniProt P40763)
Experiment: label-free microscale thermophoresis
Type: binding

Sequence of STAT3 (P40763 2-770): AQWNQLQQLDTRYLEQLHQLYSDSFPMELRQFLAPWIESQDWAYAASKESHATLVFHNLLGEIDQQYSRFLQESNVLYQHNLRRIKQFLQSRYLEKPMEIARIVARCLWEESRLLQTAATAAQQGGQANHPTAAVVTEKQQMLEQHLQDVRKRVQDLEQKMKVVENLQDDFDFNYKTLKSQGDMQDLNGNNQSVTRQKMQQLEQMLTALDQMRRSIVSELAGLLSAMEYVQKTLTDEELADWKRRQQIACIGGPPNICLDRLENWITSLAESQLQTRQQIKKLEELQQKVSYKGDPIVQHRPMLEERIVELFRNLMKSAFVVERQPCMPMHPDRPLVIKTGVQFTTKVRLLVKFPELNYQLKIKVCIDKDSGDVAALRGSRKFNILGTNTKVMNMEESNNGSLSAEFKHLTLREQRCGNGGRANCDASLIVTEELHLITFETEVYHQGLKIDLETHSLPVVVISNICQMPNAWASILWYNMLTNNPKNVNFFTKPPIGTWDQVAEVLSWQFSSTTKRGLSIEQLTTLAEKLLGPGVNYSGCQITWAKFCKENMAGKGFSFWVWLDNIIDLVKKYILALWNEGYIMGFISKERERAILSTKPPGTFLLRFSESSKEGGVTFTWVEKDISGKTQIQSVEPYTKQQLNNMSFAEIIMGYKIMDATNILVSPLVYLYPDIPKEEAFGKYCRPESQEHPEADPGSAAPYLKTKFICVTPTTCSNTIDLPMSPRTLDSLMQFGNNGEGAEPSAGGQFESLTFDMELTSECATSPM

In the case of `CC(=O)Nc1ccc(O)cc1` [AAP, acetaminophen], the Kd is reported as 600 ± 400 nM.
